Here are results for 20 molecules from patent US9394297B2, “Amides as pim inhibitors” (AMGEN INC., priority 2012, dated 2016).

pIC50: −log10 of the molar value. Where two headings read alike, the source gives them in different places.

Test [1] has as its target T1, Pim-1 (Homo sapiens (Human), UniProt P11309). Description: Pim enzyme assay (HTRF, 96-well), Pim-1. The format is biochemical. The note with it: full length recombinant Pim-1, biotinylated-BAD (S112) peptide, 10-point curve, 2 h RT, read-out: Pim-1 IC50 IP. The source says: These cDNAs were used as templates in PCR reactions to produce full-length DNA clones of the PIMs. […] PCR products were digested with BclI and EcoRI for Pim-1 and BamHI and EcoRI for Pim-2 and ligated into a modified baculovirus transfer vector (pFastBac1) cleaved with BamHI and EcoRI. For bacterial expression, the same cleaved PCR products encoding Pim-1 or Pim-2 were ligated into a modified E. coli expression vector pET28(a) cleaved with BamHI and EcoRI. Amino-terminal hexahistidine tags followed by a thrombin cleavage site were previously added to the vectors using standard methods of molecular biology.
Recombinant baculoviruses expressing Pim-1 or Pim-2 were made using standard methods (Fastbac manual, Invitrogen, Carlsbad, Calif.). […] Cells were harvested by centrifugation and frozen at −80 C. For E. coli expression, cells carrying pET28-His6-Th-Pim-1 or pET28-His6-Th-Pim-2 were picked from a single colony and grown o/n in LB media. The o/n culture was used to inoculate a 2 liter flask with 500 mL media. This was grown o/n and used to inoculate 15-20 liters of Terrific Broth in a New Brunswick Scientific fermentor. The E. coli were grown at 37° C. to and OD600 >1.6. The temperature was dropped to 18° C. and o/n expression was induced with 0.5 mM IPTG. Cells were harvested by centrifugation and frozen at −80° C.
The slurry was centrifuged at 1,000×g for 5 min, the supernatant decanted, and the resin suspended in 40 mL of lysis wash buffer (lysis buffer at 0.75 M NaCl). This step was repeated 3× and the resin was transferred to a 2.5 cm glass column. Ten column volumes of wash buffer (0.05 M HEPES, pH 8.0, 0.1 M NaCl, 0.01 M 2-mercaptoethanol, 10%(w/v) glycerol) were applied to the resin followed by 10 column volumes of elution buffer (0.05 M HEPES, pH 8.0, 0.25 M NaCl, 0.01 M 2-mercaptoethanol, 10%(w/v) glycerol, 0.1 M imidazole). Fractions were analyzed by SDS-PAGE and those containing the protein of interest were pooled and concentrated. The concentrated protein was applied to an Amersham Superdex 75 (XK 26/60) column equilibrated in 0.025 M Tris-HCl, pH 7.5, 0.1 M NaCl, 0.01 M 2-mercaptoethanol, 10% (w/v) glycerol. […] Fractions containing the monomeric protein of interest were pooled, concentrated to ˜2 mg/mL, and stored at −80° C.
The phosphorylation of biotinylated-BAD (S112) peptide by full length recombinant Pim-1, Pim-2, or Pim-3 protein was detected with streptavidin:Allophycocyanin (APC) conjugate and a europium (Eu) labeled antibody directed against phosphorylated-BAD (S112). […] The fluorescence is directly proportional to the amount of phosphorylated BAD peptide present in the reaction. […] A reference compound was included on each assay plate in order to validate that plate; on one plate of every assay run, two additional reference compounds were included. The final buffer conditions were as follows: 60 mM Hepes, pH 7.0, 0.05% BSA, 2 mM DTT. Incubations were carried out at RT (22° C.) for 2 h for Pim-1, 1 hour and 30 min for Pim-3, and 45 min for Pim-2. The reaction was stopped by the addition of 3 mM EDTA, and fluorescence was measured by an HTRF® Rubystar microplate reader. For each plate, percent of control (POC) values were calculated for each well. Values for the IC50 IP were estimated using a standard 4-parameter logistic model.

Test [2] deals with KMS-12-BM myeloma cell line. Description: Pim KMS-12 cell assay (phospho-BAD S112 / total BAD, MSD). To be noted: Homo sapiens, KMS-12-BM.
Test [3] addresses T1, Pim-1. Description: Pim-Mn enzyme assay (HTRF, 384-well), Pim-1. The class given is biochemical. The note with it: Pim-1 enzyme 5 pM, ATP 1.5 μM, BAD (S112) 0.5 μM, HTRF, 22-point curve; read-out: Pim-1-Mn IC50 IP.
The target of the next test is Pim-2 (Homo sapiens (Human), UniProt Q9P1W9). Description: Pim-Mn enzyme assay (HTRF, 384-well), Pim-2. The format is biochemical. To be noted: Pim-2 enzyme 0.5 pM, ATP 1.5 μM, BAD (S112) 0.5 μM, HTRF, 22-point curve; read-out: Pim-2-Mn IC50 IP.
Chain of Pim-2 (Q9P1W9 whole entry): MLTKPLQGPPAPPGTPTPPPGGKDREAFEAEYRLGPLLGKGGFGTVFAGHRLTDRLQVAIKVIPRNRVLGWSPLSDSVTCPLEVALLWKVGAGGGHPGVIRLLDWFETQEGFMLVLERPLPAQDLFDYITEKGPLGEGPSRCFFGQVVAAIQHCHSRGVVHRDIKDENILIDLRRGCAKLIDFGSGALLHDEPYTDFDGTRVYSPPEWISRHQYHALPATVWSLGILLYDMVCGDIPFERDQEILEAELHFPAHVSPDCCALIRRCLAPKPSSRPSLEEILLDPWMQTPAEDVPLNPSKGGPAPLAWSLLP
A further test relates to KMS-12-BM cell lines. Description: KMS12 #2 flow cytometry assay (phospho-BAD Ser112). The format is cell-based. The note with it: Homo sapiens, KMS-12-BM, 110 min, read-out: KMS-12-Flow IC50 IP.
The mark [4] stands for this setting: read-out: KMS-12-BM IC50 IP, KMS-12-BM cells, phospho-BAD (S112) vs total BAD, 1 hour 50 min with compound.

T1 sequence (P11309 whole entry): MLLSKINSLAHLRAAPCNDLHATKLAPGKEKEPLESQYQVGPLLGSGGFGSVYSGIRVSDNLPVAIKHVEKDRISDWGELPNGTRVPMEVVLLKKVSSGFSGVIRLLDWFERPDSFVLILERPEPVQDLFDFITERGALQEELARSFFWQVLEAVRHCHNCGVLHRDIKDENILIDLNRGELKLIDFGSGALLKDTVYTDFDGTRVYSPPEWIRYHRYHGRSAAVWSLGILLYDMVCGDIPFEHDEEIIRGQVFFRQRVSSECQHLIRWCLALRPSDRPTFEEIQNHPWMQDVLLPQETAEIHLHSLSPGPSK

As a reminder, the pIC50 is the negative decadic logarithm of the IC50, by convention in mol/L. As for `CCC1CNC(=O)c2cc(-c3cccc4ccc(Cl)nc34)[nH]c21` (racemic) [Example 22, rac-2-(2-chloroquinolin-8-yl)-7-ethyl-6,7-dihydro-1H-pyrrolo[3,2-c]pyridin-4(5H)-one], on Pim-1 [1], the pIC50 was 7.22.

For `CCC1CNC(=O)c2cc(-c3cccc4ccc(Oc5ccccc5)nc34)[nH]c21` (racemic) [Example 23, rac-7-ethyl-2-(2-phenoxyquinolin-8-yl)-6,7-dihydro-1H-pyrrolo[3,2-c]pyridin-4(5H)-one], the pIC50 at Pim-1 [1] was 7.85.

Turning to `O=C1NCCc2[nH]c(-c3c(F)ccc4ccc(NC5CCCCC5)nc34)cc21` [Example 90, 2-(2-(cyclohexylamino)-7-fluoroquinolin-8-yl)-6,7-dihydro-1H-pyrrolo[3,2-c]pyridin-4(5H)-one], the pIC50 at Pim-1 [1] is 6.47.

Regarding `O=C(NC1CC1)c1ccc2cccc(-c3cc4c([nH]3)CCNC4=O)c2n1` [Example 94, N-cyclopropyl-8-(4-oxo-4,5,6,7-tetrahydro-1H-pyrrolo[3,2-c]pyridin-2-yl)quinoline-2-carboxamide], on Pim-1 [1], the negative logarithm of the IC50 (pIC50) was 6.57.

On to `O=C(Nc1ccccc1)c1ccc2cccc(-c3cc4c([nH]3)CCNC4=O)c2n1` [Example 95, 8-(4-oxo-4,5,6,7-tetrahydro-1H-pyrrolo[3,2-c]pyridin-2-yl)-N-phenylquinoline-2-carboxamide], for which, on Pim-1 [1], the pIC50 is 6.65.

For the molecule `CC1(C)CNCCN1c1cnc2cccc(-c3cc4c([nH]3)CCNC4=O)c2n1` [Example 217, 2-(3-(2,2-dimethylpiperazin-1-yl)quinoxalin-5-yl)-6,7-dihydro-1H-pyrrolo[3,2-c]pyridin-4(5H)-one], the pIC50 was 6.03 in test [2] (setting [4]), 8.70 on Pim-1 [3] and 8.28 on Pim-2.

On to `Cc1nc2cccc(-c3cc4c([nH]3)CCNC4=O)c2nc1N` [Example 218, 2-(3-amino-2-methylquinoxalin-5-yl)-6,7-dihydro-1H-pyrrolo[3,2-c]pyridin-4(5H)-one], for which the negative-log IC50 (pIC50) in test [2] (setting [4]) was 5.96; at Pim-1 [3], 7.44; at Pim-2, 7.76.

Turning to `CNc1nc2c(-c3cc4c([nH]3)CCNC4=O)cccc2nc1C` [Example 219, 2-(2-methyl-3-(methylamino)quinoxalin-5-yl)-6,7-dihydro-1H-pyrrolo[3,2-c]pyridin-4(5H)-one], the pIC50 in test [2] (setting [4]) was 6.46; at Pim-1 [3], 8.11; at Pim-2, 8.39.

For the molecule `CCN(c1cnc2cccc(-c3cc4c([nH]3)CCNC4=O)c2n1)C(C)(C)C` [Example 220, 2-(3-(tert-butyl(ethyl)amino)quinoxalin-5-yl)-6,7-dihydro-1H-pyrrolo[3,2-c]pyridin-4(5H)-one], the pIC50 in test [2] (setting [4]) was 7.06; at Pim-1 [3], 10.00; at Pim-2, 10.00.

For the molecule `Cc1nc2cccc(-c3cc4c([nH]3)CCNC4=O)c2nc1SC(C)(C)C` [Example 221, 2-(3-(tert-butylthio)-2-methylquinoxalin-5-yl)-6,7-dihydro-1H-pyrrolo[3,2-c]pyridin-4(5H)-one], the results for the negative-log IC50 (pIC50) (in test [2] (setting [4]); at Pim-1 [3]; on Pim-2) were 6.12, 8.51 and 8.37, respectively.

Regarding `Cc1nc2cccc(-c3cc4c([nH]3)CCNC4=O)c2nc1N(C)C(C)(C)C` [Example 222, 2-(3-(tert-butyl(methyl)amino)-2-methylquinoxalin-5-yl)-6,7-dihydro-1H-pyrrolo[3,2-c]pyridin-4(5H)-one], the pIC50 was 6.40 in test [2] (read-out: KMS-12-BM IC50 IP), 8.46 at Pim-1 [3] and 8.68 at Pim-2.

As to `Cc1nc2cccc(-c3cc4c(=O)[nH]cnc4[nH]3)c2nc1NC1CCC1` [Example 260, 6-(3-(cyclobutylamino)-2-methylquinoxalin-5-yl)-3H-pyrrolo[2,3-d]pyrimidin-4(7H)-one], the values for the pIC50 (in test [2] (setting [4]); at Pim-1 [3]; on Pim-2) were 6.61, 8.80 and 8.91, respectively.

Turning to `Cc1nc2cccc(-c3cc4c(=O)[nH]cnc4[nH]3)c2nc1NC(C)(C)C` [Example 261, 6-(3-(tert-butylamino)-2-methylquinoxalin-5-yl)-3H-pyrrolo[2,3-d]pyrimidin-4(7H)-one], the pIC50 is 6.60 in test [2] (setting [4]), 8.91 at Pim-1 [3] and 8.89 on Pim-2.

On to `Cc1nc2cccc(-c3cc4c(=O)[nH]cnc4[nH]3)c2nc1NC(C)(C)CO` [Example 263, 6-(3-((1-hydroxy-2-methylpropan-2-yl)amino)-2-methylquinoxalin-5-yl)-3H-pyrrolo[2,3-d]pyrimidin-4(7H)-one], for which the figures for the pIC50 (in test [2] (setting [4]); on Pim-1 [3]; at Pim-2) were 6.04, 8.29 and 8.24, respectively.

For the molecule `Cc1nc2cccc(-c3cc4c([nH]3)CCNC4=O)c2nc1N[C@@H](C)C1CC1` [Example 270, 2-(3-(((1S)-1-cyclopropylethyl)amino)-2-methyl-5-quinoxalinyl)-1,5,6,7-tetrahydro-4H-pyrrolo[3,2-c]pyridin-4-one], the pIC50 in test [2] (setting [4]) is 6.67; on Pim-1 [3], 8.66; at Pim-2, 8.85.

With `Cc1nc2cccc(-c3cc4c([nH]3)CCNC4=O)c2nc1N[C@H](C)C1CC1` [Example 271, 2-(3-(((1R)-1-cyclopropylethyl)amino)-2-methyl-5-quinoxalinyl)-1,5,6,7-tetrahydro-4H-pyrrolo[3,2-c]pyridin-4-one], the pIC50 in test [2] (setting [4]) is 6.38; at Pim-1 [3] it was 8.89; on Pim-2 it was 8.70.

Consider `COc1nc2cccc(-c3cc4c([nH]3)CCNC4=O)c2nc1NC(C)(C)C` [Example 276, 2-(3-(tert-butylamino)-2-methoxy-5-quinoxalinyl)-1,5,6,7-tetrahydro-4H-pyrrolo[3,2-c]pyridin-4-one], for which the figures for the pIC50 (in test [2] (setting [4]); at Pim-1 [3]; on Pim-2) were 5.91, 8.74 and 8.30, respectively.

Regarding `Cc1nc2cccc(-c3cc4c([nH]3)CCNC4=O)c2nc1NC1(CO)CC1` [Example 277, 2-(3-((1-(hydroxymethyl)cyclopropyl)amino)-2-methyl-5-quinoxalinyl)-1,5,6,7-tetrahydro-4H-pyrrolo[3,2-c]pyridin-4-one], the pIC50 in test [2] (setting [4]) was 6.77; on Pim-1 [3] it was 9.00; at Pim-2, 9.40.

With `Cc1nc2cccc(-c3cc4c([nH]3)CCNC4=O)c2nc1NCC1(C)COC1` [Example 281, 2-(2-methyl-3-(((3-methyl-3-oxetanyl)methyl)amino)-5-quinoxalinyl)-1,5,6,7-tetrahydro-4H-pyrrolo[3,2-c]pyridin-4-one], the negative logarithm of the IC50 (pIC50) was 6.27 in test [2] (setting [4]), 8.17 at Pim-1 [3] and 8.55 on Pim-2.

For `Cc1nc2ccc(F)c(-c3cc4c([nH]3)CCNC4=O)c2nc1NC(C)(C)C` [Example 286, 2-(3-(tert-butylamino)-6-fluoro-2-methylquinoxalin-5-yl)-6,7-dihydro-1H-pyrrolo[3,2-c]pyridin-4(5H)-one], the pIC50 is 6.84 in test [2] (read-out: KMS-12-BM IC50 IP), 9.54 on Pim-1 [3], 7.55 in the test on KMS-12-BM cell lines and 9.52 at Pim-2.
